Assay results taken from US7223791B2, “Function regulator for retinoid relative receptor” (Takeda Pharmaceutical Company Limited, priority 2001, dated 2007).

Tests used:
PPARγ-RXRα heterodimer = biological target: T1, PPARγ-RXRα heterodimer (Homo sapiens, UniProt P19793+P37231); assay: PPARγ-RXRα heterodimer ligand activity (luciferase reporter, PPARγ:RXRα:4ERPP/CHO-K1 cells); format: cell-based; conditions: 48 hrs, concentration for 50% of the maximum fold induction
T1 construct: 1.4 kb DNA fragment containing PPARγ gene was recovered from the gel; 1.4 kb DNA fragment containing RXRα gene was recovered from the gel; expressed in transfected cells
T1 sequence (P37231 1-477 isoform P37231-2): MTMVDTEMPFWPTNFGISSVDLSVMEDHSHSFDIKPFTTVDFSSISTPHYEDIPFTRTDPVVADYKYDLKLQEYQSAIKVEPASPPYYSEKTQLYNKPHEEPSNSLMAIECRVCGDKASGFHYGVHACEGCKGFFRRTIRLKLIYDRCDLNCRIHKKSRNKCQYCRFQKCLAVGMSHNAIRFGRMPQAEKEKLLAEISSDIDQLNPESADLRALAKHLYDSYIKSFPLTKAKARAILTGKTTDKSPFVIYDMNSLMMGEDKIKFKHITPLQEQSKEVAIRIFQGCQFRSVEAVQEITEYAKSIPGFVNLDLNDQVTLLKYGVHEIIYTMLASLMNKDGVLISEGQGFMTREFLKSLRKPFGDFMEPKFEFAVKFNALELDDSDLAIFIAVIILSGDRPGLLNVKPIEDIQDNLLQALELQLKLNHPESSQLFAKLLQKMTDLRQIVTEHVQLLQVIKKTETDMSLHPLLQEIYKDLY
T1 sequence (P19793 1-462): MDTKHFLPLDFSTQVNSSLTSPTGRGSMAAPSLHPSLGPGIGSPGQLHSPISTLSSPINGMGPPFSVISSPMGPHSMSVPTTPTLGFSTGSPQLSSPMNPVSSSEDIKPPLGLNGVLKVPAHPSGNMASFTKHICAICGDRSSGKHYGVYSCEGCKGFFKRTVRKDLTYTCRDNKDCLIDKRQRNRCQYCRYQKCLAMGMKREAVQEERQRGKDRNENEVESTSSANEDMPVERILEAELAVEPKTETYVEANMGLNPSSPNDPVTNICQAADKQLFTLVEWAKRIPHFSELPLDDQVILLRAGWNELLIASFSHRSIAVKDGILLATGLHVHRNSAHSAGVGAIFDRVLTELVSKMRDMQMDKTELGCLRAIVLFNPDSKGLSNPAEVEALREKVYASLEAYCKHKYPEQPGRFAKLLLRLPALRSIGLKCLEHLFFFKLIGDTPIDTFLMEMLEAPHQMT
Experimental: (PPARγ-RXRα Heterodimer Ligand Activity)
PPARγ: RXRα: 4ERPP/CHO-K1 cells obtained in the following Reference Example 5 were cultured in HAM F12 medium (manufactured by NISSUI SEIYAKU) containing 10% fetal bovine serum [manufactured by Life Technologies, Inc., USA], seeded in a 96-well white plate [manufactured by Corning Coster Corporation, USA] at the density of 2×10^4 cells/well and cultured in a CO2 gas incubator at 37° C. overnight.
After washing the 96-well white plate with PBS (Phosphate-buffered saline), 90 μl of HAM F12 medium containing 0.1% fatty acid-free bovine serum albumin (BSA) and 10 μl of test compound were added, and the cells were cultured in a CO2 gas incubator at 37° C. for 48 hrs. The medium was removed and 40 μl of PicaGene 7.5 (manufactured by Wako Pure Chemical Industries, Ltd.) was added. After stirring, the luciferase activity was determined using Lumistar [manufactured by BMG Labtechnologies GmbH, Germany].
The fold induction was calculated from the luciferase activity of each test compound when the luciferase activity of the test compound non-administration group is taken as 1. The values of the test compound concentration and the fold induction were analyzed using PRISM 2.01 (produced by GraphPad Software Inc. USA) to calculate the EC50 values, the concentration of a test compound for 50% of the maximum fold induction. The results are shown in [Table 2].
Introduction of Human PPARγ- and RXRα-Expression Plasmid and Reporter Plasmid into CHO-K1 Cell as Well as Establishment of Expressed Cell
A CHO-K1 cell cultured in a tissue culture flask (750 ml) [produced by Corning Costar Corporation, USA] containing HAM F12 medium (produced by NISSUI SEIYAKU) supplemented with 10% fetal bovine serum [produced by Life Technologies, Inc., USA] was scraped by treating with 0.5 g/L trypsin-0.2 g/L EDTA (ethylenediamine tetraacetate) [produced by Life Technologies, Inc., USA], and then the cell was washed with PBS (Phosphate-buffered saline)[produced by Life Technologies, Inc., USA], centrifuged (1000 rpm, 5 minutes) and suspended in PBS. Subsequently, DNA was introduced into the cell under the conditions shown below using GENE PULSER (produced by Bio-Rad Laboratories, USA).
Namely, to a cuvette having a 0.4 cm gap were added 8×10^6 cells and 10 μg of plasmid pVgRXR2-hPPARγ obtained in Reference Example 3 and 10 μg of reporter plasmid pGL3-4ERPP-TK neo obtained in Reference Example 4, which was subjected to electroporation at the voltage of 0.25 kV under the capacitance of 960 μF. Subsequently, the cell was transferred into a HAM F12 medium containing 10% fetal bovine serum and cultured for 24 hours, and then the cell was scraped again and centrifuged, and then suspended in HAM F12 medium containing 10% fetal bovine serum supplemented with 500 μg/ml of Geneticin [produced by Life Technologies, Inc., USA] and 250 μg/ml of Zeocin (produced by Invitrogen, USA). The obtained suspension was diluted to the density of 10^4 cells/ml and inoculated in a 96-well plate [produced by Corning Costar Corporation, USA], which was cultured in a CO2 gas incubator at 37° C., whereby obtaining a Geneticin- and Zeocin-resistant transformant.
Subsequently, after the transformant cell line thus obtained was cultured in a 24-well plate [produced by Corning Costar Corporation, USA], a cell line in which the luciferase was expressed and induced, i.e., PPARγ: RXRα: 4ERPP/CHO-K1 cell was selected by the addition of 10 μM pioglitazone hydrochloride.

KKA^y mice = assay: Glucose-lowering and lipid-lowering (triglyceride-lowering) actions in mice; format: in vivo; conditions: test compound 0.01% in powdery diet for four days, non-administration group taken as 100%; for glucose-lowering action (%): reduction percent of blood glucose level; for lipid-lowering action (%): reduction percent of blood triglyceride level
Excerpt: Glucose-Lowering and Lipid-Lowering (Triglyceride-Lowering) Actions in Mice
Test compounds were mixed in a powdery diet (CE-2, Japan Clea) at the proportion of 0.01%, and freely given to KKA^y mice (9 to 12 weeks old, 5 mice per group), a model of obesity-non-insulin dependent diabetes mellitus (type 2 diabetes mellitus), for four days. During this period, water was given freely. Blood was sampled from orbital venous plexus, and glucose and triglyceride levels in plasma separated from the blood were determined enzymatically using L type Wako Glu2 (Wako Pure Chemical Industries, Ltd.) or L type Wako TG-H (Wako Pure Chemical Industries, Ltd.), respectively. The results are given in [Table 1].
In the Table, “glucose-lowering action (%)” represents a reduction percent (%) of the blood glucose level in a test compound administration group when the blood glucose level in a test compound non-administration group is taken as 100%. In addition, “lipid-lowering action (%)” represents a reduction percent (%) of the blood triglyceride level in the test compound administration group when the blood triglyceride level in the test compound non-administration group is taken as 100%.

Work on CCOC(=O)c1ccc(-c2ccc(-c3ccc(C(F)(F)F)cc3)o2)cc1 [Example 6, ethyl 4-[5-(4-triflubromethylphenyl)-2-furyl]benzoate] yielded an EC50 (PPARγ-RXRα heterodimer) of 3.6 nM.

For Cn1c(-c2ccc(C(=O)O)cc2)ccc1-c1ccc(C(F)(F)F)cc1 [Example 7, 4-[1-methyl-5-(4-trifluoromethylphenyl)-2-pyrrolyl]benzoic acid], the melting point was 260 to 261 °C and the EC50 (PPARγ-RXRα heterodimer) was 7.6 nM.

With O=C(O)c1cccc(-c2ccc(-c3ccc(C(F)(F)F)cc3)o2)c1 [Example 9, 3-[5-(4-trifluoromethylphenyl)-2-furyl]benzoic acid] the melting point was 271 to 272 °C and the EC50 (PPARγ-RXRα heterodimer) was 54 nM.

With O=C(O)c1ccc(-c2ccc(-c3ccc(C(F)(F)F)cc3)o2)cc1 [Example 10, 4-[5-(4-trifluoromethylphenyl)-2-furyl]benzoic acid] the “glucose-lowering action (%)” value (KKA^y mice) was 37%, the “lipid-lowering action (%)” value (KKA^y mice) was 62% and the melting point was 270 to 271 °C. It also gave an EC50 (PPARγ-RXRα heterodimer) of 3.8 nM.

In the case of O=C(O)c1ccc(-c2ccc(-c3ccc(Cl)cc3)s2)cc1 [Example 15, 4-[5-(4-chlorophenyl)-2-thienyl]benzoic acid], the “glucose-lowering action (%)” value (KKA^y mice) is reported as 30%, the “lipid-lowering action (%)” value (KKA^y mice) is reported as 54% and the melting point is reported as 285 to 286 °C. The EC50 (PPARγ-RXRα heterodimer) was 22 nM.

For O=C(O)c1ccc(-c2ccc(-c3ccc(C(F)(F)F)cc3)s2)cc1 [Example 16, 4-[5-(4-trifluoromethylphenyl)-2-thienyl]benzoic acid], the melting point was 284 to 285 °C and the EC50 (PPARγ-RXRα heterodimer) was 23 nM.

O=C(O)c1ccc(-c2cc(-c3ccc(C(F)(F)F)cc3)no2)cc1 [Example 26, 4-[3-(4-trifluorophenyl)-5-isoxazolyl]benzoic acid] gave an EC50 (PPARγ-RXRα heterodimer) of 23 nM.

O=C(O)c1cccc(-c2cc(-c3ccccc3)on2)c1 [Example 27, 3-(5-phenyl-3-isoxazolyl)benzoic acid] showed a melting point of 250 to 251 °C and an EC50 (PPARγ-RXRα heterodimer) of 2.1 nM.

Compound O=C(O)c1ccc(-c2cc(-c3ccccc3)on2)cc1 [Example 28, 4-(5-phenyl-3-isoxazolyl)benzoic acid] has a melting point of 297 to 298 °C and an EC50 (PPARγ-RXRα heterodimer) of 2.3 nM.

O=C(O)c1cccc(-c2cc(-c3ccc(Cl)cc3)on2)c1 [Example 29, 3-[5-(4-chlorophenyl)-3-isoxazolyl]benzoic acid] showed a melting point of 298 to 299 °C and an EC50 (PPARγ-RXRα heterodimer) of 0.59 nM.

Work on O=C(O)c1ccc(-c2cc(-c3ccc(Cl)cc3)on2)cc1 [Example 30, 4-[5-(4-chlorophenyl)-3-isoxazolyl]benzoic acid] yielded a melting point of over 300 °C and an EC50 (PPARγ-RXRα heterodimer) of 6 nM.

For O=C(O)c1cccc(-c2cc(-c3ccc(C(F)(F)F)cc3)no2)c1 [Example 33, 3-[3-(4-trifluoromethylphenyl)-5-isoxazolyl]benzoic acid], the melting point was 272 to 273 °C and the EC50 (PPARγ-RXRα heterodimer) was 2.7 nM.

Compound O=C(O)c1cccc(-c2cc(-c3ccc(C(F)(F)F)cc3)on2)c1 [Example 34, 3-[5-(4-trifluoromethylphenyl)-3-isoxazolyl]benzoic acid] has a melting point of 276 to 277 °C and an EC50 (PPARγ-RXRα heterodimer) of 1.2 nM.

With O=C(O)c1ccc(-c2cc(-c3ccc(C(F)(F)F)cc3)on2)cc1 [Example 35, 4-[5-(4-trifluoromethylphenyl)-3-isoxazolyl]benzoic acid] the melting point was over 300 °C and the EC50 (PPARγ-RXRα heterodimer) was 3.8 nM.

In the case of O=C(O)c1ccc(-c2noc(-c3ccc(C(F)(F)F)cc3)n2)cc1 [Example 44, 4-[5-(4-trifluoromethylphenyl)-1,2,4-oxadiazol-3-yl]benzoic acid], the melting point is reported as 286 to 287 °C and the EC50 (PPARγ-RXRα heterodimer) is reported as 68 nM.

For COC(=O)c1ccc(-c2nnc(-c3ccc(C(F)(F)F)cc3)s2)cc1 [Example 58, methyl 4-[5-(4-trifluoromethylphenyl)-1,3,4-thiadiazol-2-yl]benzoate], the “glucose-lowering action (%)” value (KKA^y mice) was 37%, the “lipid-lowering action (%)” value (KKA^y mice) was 48% and the melting point was 218 to 219 °C.

COC(=O)c1ccc(-c2nnc(-c3ccc(C(F)(F)F)cc3)o2)c(N)c1 [Example 76, methyl 3-amino-4-[5-(4-trifluoromethylphenyl)-1,3,4-oxadiazol-2-yl]benzoate] showed a melting point of 237 to 238 °C.

Work on O=Cc1ccc(-c2noc(-c3ccc(C(F)(F)F)cc3)n2)cc1 [Example 77, 4-[5-(4-trifluoromethylphenyl)-1,2,4-oxadiazol-3-yl]benzaldehyde] yielded a melting point of 145 to 146 °C.

In the case of O=C(O)c1ccc(-c2nc(-c3cccc(Oc4ccccc4)c3)no2)cc1 [Example 79, 4-[3-(3-phenoxyphenyl)-1,2,4-oxadiazol-5-yl]benzoic acid], the melting point is reported as 292 to 293 °C.

In the case of O=Cc1cccc(-c2nnc(-c3ccc(C(F)(F)F)cc3)o2)c1 [Example 80, 3-[5-(4-trifluoromethylphenyl)-1,3,4-oxadiazol-2-yl]benzaldehyde], the melting point is reported as 129 to 130 °C.

O=Cc1ccc(-c2nnc(-c3ccccc3[N+](=O)[O-])o2)cc1 [Example 81, 4-[5-(2-nitrophenyl)-1,3,4-oxadiazol-2-yl]benzaldehyde] gave a melting point of 189 to 190 °C.

O=Cc1cccc(-c2cc(-c3ccc(C(F)(F)F)cc3)no2)c1 [Example 82, 3-[3-(4-trifluoromethylphenyl)-5-isoxazolyl]benzaldehyde] gave a melting point of 151 to 152 °C.
